How the values were obtained:
Assay type in all cases: biochemical
Itk = biological target: T1, Itk (Homo sapiens, UniProt Q08881); assay: Kinase inhibition assay (33P transfer), Itk; details: read-out: Itk-1
T1 construct: Kinases are expressed as either kinase domains or full length constructs; made in house
T1 sequence (Q08881 1-620): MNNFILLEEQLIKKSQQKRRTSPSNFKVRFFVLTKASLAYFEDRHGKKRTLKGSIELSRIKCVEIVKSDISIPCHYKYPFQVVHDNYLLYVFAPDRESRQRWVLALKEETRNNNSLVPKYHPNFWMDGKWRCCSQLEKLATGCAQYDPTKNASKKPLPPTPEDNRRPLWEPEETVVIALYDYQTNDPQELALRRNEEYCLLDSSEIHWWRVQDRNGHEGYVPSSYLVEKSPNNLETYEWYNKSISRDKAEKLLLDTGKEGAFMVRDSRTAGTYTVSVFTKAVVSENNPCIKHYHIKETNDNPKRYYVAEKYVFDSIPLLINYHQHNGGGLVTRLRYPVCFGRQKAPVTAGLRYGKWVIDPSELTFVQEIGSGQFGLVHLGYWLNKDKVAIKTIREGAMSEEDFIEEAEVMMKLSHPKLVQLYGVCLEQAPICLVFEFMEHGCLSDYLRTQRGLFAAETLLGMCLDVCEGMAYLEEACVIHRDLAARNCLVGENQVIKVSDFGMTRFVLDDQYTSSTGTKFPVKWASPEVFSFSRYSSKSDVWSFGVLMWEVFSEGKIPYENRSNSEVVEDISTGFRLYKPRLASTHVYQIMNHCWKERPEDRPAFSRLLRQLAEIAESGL
Summary of the method: (§1)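 Read-out: scintillation counts of 33P moved from ATP onto synthetic peptide polymer coated on the well surface, after washing with 0.5% phosphoric acid. Enzymes were tagged (GST or polyHistidine) and came from bacterial or insect-cell expression. IC50 marks 50% loss of incorporated label.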

IGFR-1 = biological target: T2, IGFR-1 (Homo sapiens, UniProt P08069); assay: Kinase inhibition assay, IGFR-1 (Table 2); details: Table 2, kinase inhibition class
T2 construct: Kinases are expressed as either kinase domains or full length constructs; made in house

PDGFRB = biological target: T3, PDGFRB (Homo sapiens, UniProt P09619); assay: Kinase inhibition assay (33P transfer), PDGFRB; details: read-out: PDGFRB-1
T3 construct: Kinases are expressed as either kinase domains or full length constructs; made in house

Lck = biological target: T4, Lck (Homo sapiens, UniProt P06239); assay: Kinase inhibition assay (33P transfer), Lck; details: read-out: Lck-1
T4 construct: Kinases are expressed as either kinase domains or full length constructs; made in house
Summary of the method: (§2)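 Kinase domain or full-length constructs, GST- or polyHis-tagged, expressed in E. coli or baculovirus-High Five cells, sometimes with regulatory polypeptides. Activity measured as 33PO4 transfer from ATP to plate-bound poly(Glu,Tyr) 4:1 or poly(Arg,Ser) 3:1; after incubation, plates washed with 0.5% phosphoric acid and counted by liquid scintillation.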

AKT = biological target: T5, AKT (Homo sapiens, UniProt Q9Y243); assay: Kinase inhibition assay (33P transfer), AKT; details: Table 2, kinase inhibition class; read-out: AKT3-1
T5 construct: Kinases are expressed as either kinase domains or full length constructs; made in house
Summary of the method: as §2

Kdr = biological target: T6, Kdr (Homo sapiens, UniProt P35968); assay: Kinase inhibition assay (33P transfer), Kdr; details: read-out: KDR-1
T6 construct: Kinases are expressed as either kinase domains or full length constructs; made in house
Summary of the method: as §2

c-Met = biological target: T7, c-Met (Homo sapiens, UniProt P08581); assay: Kinase inhibition assay (33P transfer), c-Met; details: Table 2, kinase inhibition class; read-out: Met-1
T7 construct: Kinases are expressed as either kinase domains or full length constructs; made in house
Summary of the method: as §1

ErbB2 = biological target: T8, ErbB2 (Homo sapiens, UniProt P04626); assay: Kinase inhibition assay (33P transfer), ErbB2; details: read-out: ErbB2-2
T8 construct: Kinases are expressed as either kinase domains or full length constructs; made in house
Summary of the method: as §1

EGFR = biological target: T9, EGFR (Homo sapiens, UniProt P00533); assay: Kinase inhibition assay (33P transfer), EGFR; details: Table 2, kinase inhibition class; read-out: EGFR-1
T9 construct: Kinases are expressed as either kinase domains or full length constructs; made in house
Summary of the method: as §1

Zap-70 = biological target: T10, Zap-70 (Homo sapiens, UniProt P43403); assay: Kinase inhibition assay (33P transfer), Zap-70; details: read-out: Zap-1
T10 construct: Kinases are expressed as either kinase domains or full length constructs; made in house
T10 sequence (P43403 1-619): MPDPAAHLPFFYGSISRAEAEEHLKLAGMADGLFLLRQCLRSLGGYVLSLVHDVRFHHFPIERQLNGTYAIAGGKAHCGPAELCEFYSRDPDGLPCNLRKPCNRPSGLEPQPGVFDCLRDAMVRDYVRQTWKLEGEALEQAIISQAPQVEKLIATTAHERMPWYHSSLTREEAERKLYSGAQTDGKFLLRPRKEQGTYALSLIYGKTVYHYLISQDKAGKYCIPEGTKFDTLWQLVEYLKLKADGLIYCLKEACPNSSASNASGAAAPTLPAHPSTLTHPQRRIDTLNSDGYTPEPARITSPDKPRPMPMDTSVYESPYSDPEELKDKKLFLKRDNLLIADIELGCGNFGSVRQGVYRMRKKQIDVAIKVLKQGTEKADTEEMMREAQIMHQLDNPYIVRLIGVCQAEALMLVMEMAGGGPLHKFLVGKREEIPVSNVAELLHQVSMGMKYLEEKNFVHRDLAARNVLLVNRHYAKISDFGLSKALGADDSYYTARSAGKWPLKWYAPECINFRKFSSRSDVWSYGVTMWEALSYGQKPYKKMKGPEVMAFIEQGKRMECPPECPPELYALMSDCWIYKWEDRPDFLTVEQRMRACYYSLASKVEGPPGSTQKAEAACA
Summary of the method: as §2

T5 sequence (Q9Y243 whole entry, the tested form may be a part): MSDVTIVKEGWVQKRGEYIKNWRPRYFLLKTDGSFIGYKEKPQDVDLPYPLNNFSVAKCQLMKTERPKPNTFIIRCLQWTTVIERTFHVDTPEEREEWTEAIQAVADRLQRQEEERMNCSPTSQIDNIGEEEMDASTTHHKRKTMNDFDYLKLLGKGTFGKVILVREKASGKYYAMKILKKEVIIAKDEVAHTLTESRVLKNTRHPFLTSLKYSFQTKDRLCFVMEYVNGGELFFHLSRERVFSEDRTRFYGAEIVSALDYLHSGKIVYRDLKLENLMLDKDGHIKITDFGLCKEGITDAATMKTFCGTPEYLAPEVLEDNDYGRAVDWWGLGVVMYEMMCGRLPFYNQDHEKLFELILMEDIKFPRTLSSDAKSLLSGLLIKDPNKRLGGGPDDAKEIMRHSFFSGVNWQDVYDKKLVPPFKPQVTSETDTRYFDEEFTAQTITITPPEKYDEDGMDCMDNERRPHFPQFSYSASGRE
T3 sequence (P09619 33-1106, species assumed): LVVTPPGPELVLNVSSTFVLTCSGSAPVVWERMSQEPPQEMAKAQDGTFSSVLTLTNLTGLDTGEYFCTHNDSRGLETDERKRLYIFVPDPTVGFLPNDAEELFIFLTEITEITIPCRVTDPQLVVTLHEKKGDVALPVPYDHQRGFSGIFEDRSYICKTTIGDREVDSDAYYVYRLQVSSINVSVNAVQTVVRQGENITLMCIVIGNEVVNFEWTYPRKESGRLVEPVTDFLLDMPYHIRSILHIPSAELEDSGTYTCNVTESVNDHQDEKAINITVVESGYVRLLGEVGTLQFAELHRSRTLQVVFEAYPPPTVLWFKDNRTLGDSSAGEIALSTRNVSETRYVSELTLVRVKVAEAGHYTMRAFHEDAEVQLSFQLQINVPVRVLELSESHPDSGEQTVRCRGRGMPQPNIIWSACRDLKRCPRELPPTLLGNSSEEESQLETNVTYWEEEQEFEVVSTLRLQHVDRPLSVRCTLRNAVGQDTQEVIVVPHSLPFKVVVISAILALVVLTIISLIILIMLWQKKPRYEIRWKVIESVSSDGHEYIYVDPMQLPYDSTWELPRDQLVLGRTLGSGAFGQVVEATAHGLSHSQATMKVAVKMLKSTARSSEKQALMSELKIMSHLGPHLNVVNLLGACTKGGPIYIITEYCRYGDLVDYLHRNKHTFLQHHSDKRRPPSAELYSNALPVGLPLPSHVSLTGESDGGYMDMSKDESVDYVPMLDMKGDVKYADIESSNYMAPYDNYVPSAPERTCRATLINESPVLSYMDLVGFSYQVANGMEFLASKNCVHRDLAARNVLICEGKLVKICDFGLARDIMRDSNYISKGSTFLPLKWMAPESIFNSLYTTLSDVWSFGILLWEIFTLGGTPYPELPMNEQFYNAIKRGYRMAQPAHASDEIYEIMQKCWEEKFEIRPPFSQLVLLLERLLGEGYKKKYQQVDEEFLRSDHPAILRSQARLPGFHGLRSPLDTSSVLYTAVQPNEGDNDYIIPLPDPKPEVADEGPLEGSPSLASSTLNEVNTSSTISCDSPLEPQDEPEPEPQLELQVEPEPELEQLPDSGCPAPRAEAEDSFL
T6 sequence (P35968 20-1356, species assumed): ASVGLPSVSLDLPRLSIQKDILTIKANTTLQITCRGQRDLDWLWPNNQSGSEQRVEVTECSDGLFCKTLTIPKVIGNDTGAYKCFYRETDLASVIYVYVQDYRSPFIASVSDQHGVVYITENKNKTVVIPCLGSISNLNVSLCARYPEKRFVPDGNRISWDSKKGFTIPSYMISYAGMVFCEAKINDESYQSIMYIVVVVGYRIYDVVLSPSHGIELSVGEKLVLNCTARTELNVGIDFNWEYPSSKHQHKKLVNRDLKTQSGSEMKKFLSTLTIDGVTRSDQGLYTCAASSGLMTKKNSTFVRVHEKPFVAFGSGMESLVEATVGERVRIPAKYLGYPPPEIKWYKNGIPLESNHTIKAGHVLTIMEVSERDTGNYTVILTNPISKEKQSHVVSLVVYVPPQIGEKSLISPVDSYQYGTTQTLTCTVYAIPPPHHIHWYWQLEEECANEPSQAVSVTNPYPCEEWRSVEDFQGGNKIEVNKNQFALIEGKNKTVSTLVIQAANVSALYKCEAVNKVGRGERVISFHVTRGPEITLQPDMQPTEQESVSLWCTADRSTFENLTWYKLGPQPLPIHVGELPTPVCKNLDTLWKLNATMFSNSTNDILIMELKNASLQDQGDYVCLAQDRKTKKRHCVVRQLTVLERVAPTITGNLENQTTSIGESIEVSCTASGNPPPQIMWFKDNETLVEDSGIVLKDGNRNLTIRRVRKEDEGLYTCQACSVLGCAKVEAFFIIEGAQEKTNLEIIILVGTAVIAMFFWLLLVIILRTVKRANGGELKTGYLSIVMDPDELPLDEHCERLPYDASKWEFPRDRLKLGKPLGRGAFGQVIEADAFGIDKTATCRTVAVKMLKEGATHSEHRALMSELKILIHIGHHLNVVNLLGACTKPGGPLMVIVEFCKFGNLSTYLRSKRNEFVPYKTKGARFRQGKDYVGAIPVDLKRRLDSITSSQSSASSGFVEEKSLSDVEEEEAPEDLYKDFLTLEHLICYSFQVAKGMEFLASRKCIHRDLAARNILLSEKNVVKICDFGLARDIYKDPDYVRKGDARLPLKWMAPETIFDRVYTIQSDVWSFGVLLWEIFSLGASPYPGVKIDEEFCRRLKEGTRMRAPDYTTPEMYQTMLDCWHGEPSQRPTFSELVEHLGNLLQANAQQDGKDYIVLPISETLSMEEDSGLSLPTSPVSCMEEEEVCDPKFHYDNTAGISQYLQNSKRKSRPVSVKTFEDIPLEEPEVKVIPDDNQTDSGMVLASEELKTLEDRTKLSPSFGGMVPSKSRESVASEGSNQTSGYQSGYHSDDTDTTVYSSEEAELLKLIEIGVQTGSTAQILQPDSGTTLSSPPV
T8 sequence (P04626 23-1255, species assumed): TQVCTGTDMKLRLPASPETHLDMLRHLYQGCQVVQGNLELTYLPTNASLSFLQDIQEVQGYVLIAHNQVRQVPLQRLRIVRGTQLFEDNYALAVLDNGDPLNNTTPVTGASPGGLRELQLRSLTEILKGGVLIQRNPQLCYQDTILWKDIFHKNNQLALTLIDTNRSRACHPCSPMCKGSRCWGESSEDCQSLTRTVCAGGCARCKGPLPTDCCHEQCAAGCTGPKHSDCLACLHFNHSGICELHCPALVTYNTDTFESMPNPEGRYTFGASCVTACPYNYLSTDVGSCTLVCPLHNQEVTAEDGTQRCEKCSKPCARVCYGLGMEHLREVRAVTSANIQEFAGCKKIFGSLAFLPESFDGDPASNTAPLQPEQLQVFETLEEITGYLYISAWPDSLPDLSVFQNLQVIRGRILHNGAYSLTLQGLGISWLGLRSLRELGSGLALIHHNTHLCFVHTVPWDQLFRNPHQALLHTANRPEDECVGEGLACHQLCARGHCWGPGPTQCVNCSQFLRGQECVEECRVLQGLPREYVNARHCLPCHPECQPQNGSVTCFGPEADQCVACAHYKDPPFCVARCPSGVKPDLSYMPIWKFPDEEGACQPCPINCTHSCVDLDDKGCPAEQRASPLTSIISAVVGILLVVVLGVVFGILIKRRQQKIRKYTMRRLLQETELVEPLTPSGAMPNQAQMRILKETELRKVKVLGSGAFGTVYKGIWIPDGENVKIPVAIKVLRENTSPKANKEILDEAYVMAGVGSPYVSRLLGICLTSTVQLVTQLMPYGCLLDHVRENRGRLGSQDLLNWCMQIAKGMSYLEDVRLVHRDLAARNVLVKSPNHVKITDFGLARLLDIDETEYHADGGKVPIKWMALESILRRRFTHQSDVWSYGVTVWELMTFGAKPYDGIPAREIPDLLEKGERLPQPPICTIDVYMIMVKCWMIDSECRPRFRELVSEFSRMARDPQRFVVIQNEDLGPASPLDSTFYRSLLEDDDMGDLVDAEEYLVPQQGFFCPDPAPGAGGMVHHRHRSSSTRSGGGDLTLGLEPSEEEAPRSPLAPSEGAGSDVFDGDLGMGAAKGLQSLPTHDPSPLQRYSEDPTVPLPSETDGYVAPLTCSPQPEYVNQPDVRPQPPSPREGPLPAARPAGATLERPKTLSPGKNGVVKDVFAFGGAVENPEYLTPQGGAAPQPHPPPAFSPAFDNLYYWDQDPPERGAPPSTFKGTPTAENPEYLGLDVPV
T4 sequence (P06239 whole entry, species assumed, the tested form may be a part): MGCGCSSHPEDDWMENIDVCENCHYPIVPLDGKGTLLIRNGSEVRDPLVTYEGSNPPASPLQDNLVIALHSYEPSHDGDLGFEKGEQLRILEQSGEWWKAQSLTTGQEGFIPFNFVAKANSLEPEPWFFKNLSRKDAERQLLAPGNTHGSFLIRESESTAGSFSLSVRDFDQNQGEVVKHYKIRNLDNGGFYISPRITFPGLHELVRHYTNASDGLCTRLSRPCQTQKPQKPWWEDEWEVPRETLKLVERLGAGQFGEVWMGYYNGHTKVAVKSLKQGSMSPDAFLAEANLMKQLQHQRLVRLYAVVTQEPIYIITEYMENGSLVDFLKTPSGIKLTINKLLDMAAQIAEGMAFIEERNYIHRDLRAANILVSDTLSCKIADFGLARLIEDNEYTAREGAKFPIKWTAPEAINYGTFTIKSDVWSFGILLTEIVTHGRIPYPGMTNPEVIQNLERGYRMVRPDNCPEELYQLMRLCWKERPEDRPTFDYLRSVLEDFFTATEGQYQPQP

| Compound | IC50 (Itk) [µM] | IC50 (IGFR-1) [µM] | IC50 (PDGFRB) [µM] | IC50 (Lck) [µM] | IC50 (AKT) [µM] | IC50 (Kdr) [µM] | IC50 (c-Met) [µM] | IC50 (ErbB2) [µM] | IC50 (EGFR) [µM] | IC50 (Zap-70) [µM] |
| --- | --- | --- | --- | --- | --- | --- | --- | --- | --- | --- |
| Cc1ccc2c(c1)CCCN2c1ncnc(Nc2cccc(-c3cnco3)c2)n1 [Compound 774] | 1.04 to 6.24 | 6.24 to 9.1 | < 1.04 | 1.04 to 6.24 | 1.04 to 6.24 | 1.04 to 6.24 | < 1.04 | < 1.04 | < 1.04 | > 11.7 |
| Cc1ccc2c(c1)CCCN2c1ncnc(NCCc2cccnc2)n1 [Compound 775] | > 13 | > 13 | > 13 | > 13 | > 13 | > 13 | > 13 | > 13 | > 13 | > 13 |
| Cc1ccc2c(c1)CCCN2c1ncnc(NCCN2CCOCC2)n1 [Compound 776] | > 12.7 | > 12.7 | > 12.7 | > 12.7 | > 12.7 | > 12.7 | > 12.7 | > 12.7 | > 12.7 | > 12.7 |
| Cc1ccc2c(c1)CCCN2c1ncnc(NCc2cccnc2)n1 [Compound 777] | 10.5 to 13.5 | > 13.5 | > 13.5 | > 13.5 | > 13.5 | > 13.5 | > 13.5 | > 13.5 | > 13.5 | > 13.5 |
| Cc1ccc2c(c1)CCCN2c1ncnc(Nc2cccc(Cl)c2C)n1 [Compound 778] | > 12.3 | > 12.3 | > 12.3 | > 12.3 | 1.09 to 6.56 | 6.56 to 9.57 | 1.09 to 6.56 | 6.56 to 9.57 | 6.56 to 9.57 | > 12.3 |
| CCN(CC)c1ccc(Nc2ncnc(N3CCCc4cc(C)ccc43)n2)cc1 [Compound 779] | > 11.6 | > 11.6 | > 11.6 | > 11.6 | > 11.6 | > 11.6 | > 11.6 | > 11.6 | > 11.6 | > 11.6 |
| COc1ccc(Nc2ncnc(NCC(O)c3ccccc3)n2)cc1OC (centres unmarked) [Compound 780] | > 12.2 | > 12.2 | 9.53 to 12.2 | 6.53 to 9.53 | > 12.2 | > 12.2 | > 12.2 | > 12.2 | 9.53 to 12.2 | > 12.2 |
| CCN1CCCC1CNc1ncnc(Nc2ccc(OC)c(OC)c2)n1 (centres unmarked) [Compound 781] | > 12.6 | > 12.6 | 1.12 to 6.7 | > 12.6 | > 12.6 | > 12.6 | > 12.6 | > 12.6 | > 12.6 | > 12.6 |
| COc1ccc(Nc2ncnc(NCCCN3CCCCC3C)n2)cc1OC (centres unmarked) [Compound 782] | > 11.6 | > 11.6 | 6.21 to 9.06 | > 11.6 | > 11.6 | > 11.6 | > 11.6 | > 11.6 | > 11.6 | > 11.6 |
| CCOc1cccc(Nc2ncnc(Nc3ccc(OC)c(OC)c3)n2)c1 [Compound 783] | > 12.2 | 1.09 to 6.53 | 6.53 to 9.53 | 1.09 to 6.53 | > 12.2 | 9.53 to 12.2 | > 12.2 | 6.53 to 9.53 | > 12.2 | > 12.2 |
| COc1ccc(Nc2ncnc(NCCNC(C)=O)n2)cc1OC [Compound 784] | > 13.5 | > 13.5 | > 13.5 | > 13.5 | > 13.5 | > 13.5 | > 13.5 | > 13.5 | > 13.5 | > 13.5 |

Reference: patent US7074789B2, “Kinase inhibitors” (Amgen Inc., priority 1999, dated 2006)
